In assay [1] the target is T1, COX-1 (Homo sapiens, UniProt P23219). Briefly: Assay of COX-1 activity from U937 cell microsomes. It counts as biochemical. Details: Assay of COX-1 Activity from U937 cell microsomes; endogenous in cells; host or cells: U937 cells, 100,000 x g microsomal fraction. As to conditions: read-out: U937 Cox-1 (IC50, inhibition of PGE2 production). As to the method:
Assay of COX-1 Activity from U937 cell microsomes
U 937 cells are pelleted by centrifugation at 500 x g for 5 min and washed once with phosphate-buffered saline and repelleted. Cells are resuspended in homogenization buffer consisting of 0.1 M Tris-HCl, pH 7.4, 10 mM EDTA, 2 μg/ml leupeptin, 2 μg/ml soybean trypsin inhibitor, 2 μg/ml aprotinin and 1 mM phenyl methyl sulfonyl fluoride. The cell suspension is sonicated 4 times for 10 sec and is centrifuged at 10,000 x g for 10 min at 4° C. The supernatant is centrifuged at 100,000 x g for 1 hr at 4° C. The 100,000 x g microsomal pellet is resuspended in 0.1 M Tris-HCl, pH 7.4, 10 mM EDTA to approximately 7 mg protein/mil and stored at -80° C.
Microsomal preparations are thawed immediately prior to use, subjected to a brief sonication, and then diluted to a protein concentration of 125 μg/ml in 0.1 M Tris-HCl buffer, pH 7.4 containing 10 mM EDTA, 0.5 mM phenol, 1 mM reduced glutathione and 1 μM hematin. Assays are performed in duplicate in a final volume of 250 μl. Initially, 5 μl of DMSO vehicle or drug in DMSO are added to 20 μl of 0.1 M Tris-HCl buffer, pH 7.4 containing 10 mM EDTA in wells of a 96-deepwell polypropylene titre plate. 200 μl of the microsomal preparation are then added and pre-incubated for 15 min at room temperature before addition of 25 μl of […] arachidonic acid in […] Tris-HCl and 10 mM EDTA, pH 7.4. Samples are incubated for 40 min at room temperature and the reaction is stopped by the addition of 25 μl of 1 N HCl. Samples are neutralized with 25 μl of 1 N NaOH prior to quantitation of PGE2 content by radioimmunoassay (Dupont-NEN or Amersham assay kits). Cyclooxygenase activity is defined as the difference between PGE2 levels in samples incubated in the presence of arachidonic acid and ethanol vehicle.
Compounds of the present invention are inhibitors of COX-2 and are thereby useful in the treatment of COX-2 mediated diseases as enumerated above. The activities of the compounds against cyclooxygenase may be seen in the representative results shown below. In the assay, inhibition is determined by measuring the amount of prostaglandin E2 (PGE2) synthesized in the presence of arachidonic acid, COX-1 or COX-2 and a putative inhibitor. The IC50 values represent the concentration of putative inhibitor required to lower PGE2 synthesis to 50% of that obtained as compared to the uninhibited control.

Assay [2] has as its target T1, COX-1. The assay can be described thus: Human whole blood assay, COX-1 (clotting-induced TxB2 production). It counts as cell-based. More on the design: platelets in whole blood contain a large amount of the COX-1 enzyme; from tissue; host or cells: fresh human whole blood without anticoagulant, platelets. To be noted: clotting-induced TxB2, 1 hour at 37° C, read-out: HWB Cox-1 (IC50). As for the experimental part:
Human whole blood provides a protein and cell-rich milieu appropriate for the study of biochemical efficacy of anti-inflammatory compounds such as selective COX-2 inhibitors. […] This is consistent with the observation that COX-2 inhibitors have no effect on PGE2 production in normal blood. These inhibitors are active only after incubation of human whole blood with LPS, which induces COX-2. This assay can be used to evaluate the inhibitory effect of selective COX-2 inhibitors on PGE2 production. As well, platelets in whole blood contain a large amount of the COX-1 enzyme. Immediately following blood clotting, platelets are activated through a thrombin-mediated mechanism. This reaction results in the production of thromboxane B2 (TXB2) via activation of COX-1. Thus, the effect of test compounds on TxB2 levels following blood clotting can be examined and used as an index for COX-1 activity. Therefore, the degree of selectivity by the test compound can be determined by measuring the levels of PGE2 after LPS induction (COX-2) and TxB2 following blood clotting (COX-1) in the same assay.
B. COX-1 (Clotting-induced TxB2 production)
Fresh blood is collected into vacutainers containing no anticoagulants. […] The tubes are vortexed and incubated at 37° C. for 1 hour to allow blood to clot. At the end of incubation, serum is obtained by centrifugation (12,000 x g for 5 min.). A 100 μL aliquot of serum is mixed with 400 μL of methanol for protein precipitation. The supernatant is obtained and is assayed for TxB2 using a enzyme immunoassay kit (Cayman, #519031) according to the manufacturer's instruction. […]

Our source for the IC50 values is patent publication US6133292A, “Diaryl-5-alkyl-5-methyl-2-(5H)-furanones as selective cyclooxygenase-2-inhibitors” (Merck Frosst Canada & Co., priority 1998, dated 2000).

T1 sequence (P23219 24-599): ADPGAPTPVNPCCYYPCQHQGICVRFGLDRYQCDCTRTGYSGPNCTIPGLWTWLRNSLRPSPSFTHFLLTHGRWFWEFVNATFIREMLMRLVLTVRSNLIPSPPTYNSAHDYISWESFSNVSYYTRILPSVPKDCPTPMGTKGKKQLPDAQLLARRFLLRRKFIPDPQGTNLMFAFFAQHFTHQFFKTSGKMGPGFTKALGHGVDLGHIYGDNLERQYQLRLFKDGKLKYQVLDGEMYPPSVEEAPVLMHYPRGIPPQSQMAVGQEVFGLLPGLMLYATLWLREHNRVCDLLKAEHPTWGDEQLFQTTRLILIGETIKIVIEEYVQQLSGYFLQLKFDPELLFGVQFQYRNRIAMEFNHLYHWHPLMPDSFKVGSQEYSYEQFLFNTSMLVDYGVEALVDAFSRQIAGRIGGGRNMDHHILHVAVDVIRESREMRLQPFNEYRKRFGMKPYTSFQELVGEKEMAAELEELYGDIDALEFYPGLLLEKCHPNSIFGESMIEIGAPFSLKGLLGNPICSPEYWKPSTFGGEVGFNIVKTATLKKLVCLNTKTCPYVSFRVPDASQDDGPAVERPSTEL

As for `CC1(C)OC(=O)C(c2ccc(F)cc2)=C1c1ccc(S(C)(=O)=O)cc1` [Compound T3-1, 3-(4-fluorophenyl)-5,5-dimethyl-4-[4-(methylsulfonyl)phenyl]-2,5-dihydro-2-furanone, reference compound], the concentration for half-maximal inhibition (IC50) at COX-1 [1] amounted to 5.8 µM; on COX-1 [2], 86.1 µM. In the same order, the values of `CCC1(C)OC(=O)C(c2ccc(F)cc2)=C1c1ccc(S(C)(=O)=O)cc1` (stereo not drawn) [c, 5-ethyl-3-(4-fluorophenyl)-5-methyl-4-[4-(methylsulfonyl)phenyl]-2,5-dihydro-2-furanone] are 7.4 µM and more than 30 µM. In the same order, the values of `CC[C@]1(C)OC(=O)C(c2ccc(F)cc2)=C1c1ccc(S(C)(=O)=O)cc1` [d, (5S)-5-ethyl-3-(4-fluorophenyl)-5-methyl-4-[4-(methylsulfonyl)phenyl]-2,5-dihydro-2-furanone] are 3.2 µM and 8.3 µM.

As for `CC[C@@]1(C)OC(=O)C(c2ccc(F)cc2)=C1c1ccc(S(C)(=O)=O)cc1` [e, (5R)-5-ethyl-3-(4-fluorophenyl)-5-methyl-4-[4-(methylsulfonyl)phenyl]-2,5-dihydro-2-furanone], the half-inhibitory concentration (IC50) was determined as 6.2 µM at COX-1 [1] and 46 µM on COX-1 [2]. The corresponding values for `CC[C@@]1(C)OC(=O)C(c2ccc(F)c(F)c2)=C1c1ccc(S(C)(=O)=O)cc1` [h, (5R)-3-(3,4-difluorophenyl)-5-ethyl-5-methyl-4-[4-(methylsulfonyl)phenyl] -2,5-dihydro-2-furanone] are 24.8 µM and 76 µM. The corresponding values for `CC[C@]1(C)OC(=O)C(c2ccc(F)c(F)c2)=C1c1ccc(S(C)(=O)=O)cc1` [i, (5S)-3-(3,4-difluorophenyl)-5-ethyl-5-methyl-4-[4-(methylsulfonyl)phenyl] -2,5-dihydro-2-furanone] are 13.4 µM and 46.4 µM. The corresponding values for `CCCC1(C)OC(=O)C(c2ccc(F)cc2)=C1c1ccc(S(C)(=O)=O)cc1` (stereo not drawn) [n, 3-(4-fluorophenyl)-5-methyl-4-[4-(methylsulfonyl)phenyl]-5-propyl-2,5-dihydro-2-furanone] are more than 10 µM and more than 90 µM. As to `CCCC1(C)OC(=O)C(c2cccc(F)c2)=C1c1ccc(S(C)(=O)=O)cc1` (stereo not drawn) [o, 3-(3-fluorophenyl)-5-methyl-4-[4-(methylsulfonyl)phenyl]-5-propyl-2,5-dihydro-2-furanone], at COX-1 [1], the IC50 was more than 10 µM.

On to `CCCC1(C)OC(=O)C(c2ccc(F)c(F)c2)=C1c1ccc(S(C)(=O)=O)cc1` (stereo not drawn) [p, 3-(3,4-difluorophenyl)-5-methyl-4-[4-(methylsulfonyl)phenyl]-5-propyl-2,5-dihydro-2-furanone], for which the 50% inhibitory concentration (IC50) on COX-1 [1] was more than 10 µM. With `CCC1(CC)OC(=O)C(c2ccccc2)=C1c1ccc(S(C)(=O)=O)cc1` [t, 5,5-diethyl-4-[4-(methylsulfonyl)phenyl]-3-phenyl-2,5-dihydro-2-furanone, reference compound], the IC50 on COX-1 [1] was more than 10 µM. The same measure, in the same setting: to `CCC1(CC)OC(=O)C(c2ccc(F)cc2)=C1c1ccc(S(C)(=O)=O)cc1` [u, 5,5-diethyl-3-(4-fluorophenyl)-4-[4-(methylsulfonyl)phenyl]-2,5-dihydro-2-furanone, reference compound] belongs more than 10 µM.

Broadly, the IC50 is the midpoint of a concentration-inhibition curve.
